A short description of this data set: xn = mol fraction of the nth substance listed. As to conditions: Liquid, pressure decay method.

Binary diffusion coefficient data for 16 molecules are collected here from the NIST ThermoML archive (doi:10.1016/j.jct.2017.04.009).

As to `CCCCCC[n+]1ccn(C)c1.O=S(=O)([N-]S(=O)(=O)C(F)(F)F)C(F)(F)F` + O=C=O, the binary diffusion coefficient runs as follows: (283.2 K, 91.5 kPa, x2 = 0) 2.64e-10 m2/s; (298.2 K, 99.7 kPa, x2 = 0) 3.89e-10 m2/s; (313.2 K, 103.4 kPa, x2 = 0) 5.97e-10 m2/s.
With `CC(F)(F)F` [1,1,1-trifluoroethane] + CCCCCC[n+]1ccn(C)c1.O=S(=O)([N-]S(=O)(=O)C(F)(F)F)C(F)(F)F, the binary diffusion coefficient is, setting by setting: (303.2 K, 104 kPa, x1 = 0) 1.84e-10 m2/s; (313.2 K, 98.7 kPa, x1 = 0) 2.4e-10 m2/s; (323.2 K, 99.5 kPa, x1 = 0) 3.35e-10 m2/s; (333.2 K, 102.6 kPa, x1 = 0) 3.97e-10 m2/s; (343.2 K, 99.7 kPa, x1 = 0) 5.1e-10 m2/s.
`CC(F)(F)F` [1,1,1-trifluoroethane] + CCCCCCn1cc[n+](C)c1.F[B-](F)(F)F: the binary diffusion coefficient (303.2 K, 149.1 kPa, x1 = 0) came out at 7.7e-11 m2/s; the binary diffusion coefficient (313.2 K, 159.2 kPa, x1 = 0) is 1.15e-10 m2/s; the binary diffusion coefficient (323.2 K, 173.5 kPa, x1 = 0) amounted to 1.89e-10 m2/s; the binary diffusion coefficient (333.2 K, 187.6 kPa, x1 = 0) is 2.62e-10 m2/s; the binary diffusion coefficient (343.2 K, 189 kPa, x1 = 0) was 3.39e-10 m2/s.
As for `CC(F)F` [1,1-difluoroethane] + CCCCCC[n+]1ccn(C)c1.O=S(=O)([N-]S(=O)(=O)C(F)(F)F)C(F)(F)F, the binary diffusion coefficient runs as follows: (303.2 K, 87.7 kPa, x1 = 0) 9.9e-11 m2/s; (313.2 K, 89.1 kPa, x1 = 0) 1.41e-10 m2/s; (323.2 K, 92.5 kPa, x1 = 0) 2.02e-10 m2/s; (333.2 K, 96.4 kPa, x1 = 0) 2.61e-10 m2/s; (343.2 K, 93.8 kPa, x1 = 0) 3.16e-10 m2/s.
Regarding `CC(F)F` [1,1-difluoroethane] + CCCCCCn1cc[n+](C)c1.F[B-](F)(F)F, the binary diffusion coefficient (303.2 K, 95.1 kPa, x1 = 0) amounted to 7.4e-11 m2/s; the binary diffusion coefficient (313.2 K, 101.6 kPa, x1 = 0) was determined as 1.07e-10 m2/s; the binary diffusion coefficient (323.2 K, 102 kPa, x1 = 0) worked out at 1.59e-10 m2/s; the binary diffusion coefficient (333.2 K, 97.8 kPa, x1 = 0) was found to be 2.07e-10 m2/s; the binary diffusion coefficient (343.2 K, 98.5 kPa, x1 = 0) stood at 2.56e-10 m2/s.
For the molecule `CCCCCCn1cc[n+](C)c1.F[B-](F)(F)F` [1-hexyl-3-methylimidazolium tetrafluoroborate] + FCF, the binary diffusion coefficient was found to be 1.29e-10 m2/s (303.2 K, 95.7 kPa, x2 = 0); 1.8e-10 m2/s (313.2 K, 102 kPa, x2 = 0); 2.55e-10 m2/s (323.2 K, 99.1 kPa, x2 = 0); 3.57e-10 m2/s (333.2 K, 103.5 kPa, x2 = 0); 4.76e-10 m2/s (343.2 K, 99.9 kPa, x2 = 0).
As to `CCCCCCn1cc[n+](C)c1.O=S(=O)([O-])C(F)(F)F` [1-hexyl-3-methylimidazolium trifluoromethanesulfonate] + C=C(F)C(F)(F)F, the binary diffusion coefficient turned out to be 1.46e-10 m2/s (303.2 K, 104.3 kPa, x2 = 0); 2e-10 m2/s (313.2 K, 101.6 kPa, x2 = 0); 2.66e-10 m2/s (323.2 K, 106.7 kPa, x2 = 0); 3.76e-10 m2/s (333.2 K, 100.8 kPa, x2 = 0); 4.97e-10 m2/s (343.2 K, 109 kPa, x2 = 0).
Turning to `CCCCCCn1cc[n+](C)c1.O=S(=O)([O-])C(F)(F)F` [1-hexyl-3-methylimidazolium trifluoromethanesulfonate] + CC(F)(F)F, the binary diffusion coefficient by setting is: (303.2 K, 97.3 kPa, x2 = 0) 1.96e-10 m2/s; (313.2 K, 110.5 kPa, x2 = 0) 2.61e-10 m2/s; (323.2 K, 105.4 kPa, x2 = 0) 3.48e-10 m2/s; (333.2 K, 108.8 kPa, x2 = 0) 4.58e-10 m2/s; (343.2 K, 106.3 kPa, x2 = 0) 6.13e-10 m2/s.
In the case of `CCCCCCn1cc[n+](C)c1.O=S(=O)([O-])C(F)(F)F` [1-hexyl-3-methylimidazolium trifluoromethanesulfonate] + CC(F)F, the binary diffusion coefficient turned out to be 1.48e-10 m2/s (303.2 K, 86.8 kPa, x2 = 0); 2.13e-10 m2/s (313.2 K, 95.7 kPa, x2 = 0); 2.82e-10 m2/s (323.2 K, 98 kPa, x2 = 0); 3.79e-10 m2/s (333.2 K, 101.9 kPa, x2 = 0); 4.73e-10 m2/s (343.2 K, 99.1 kPa, x2 = 0).
As for `CCCCCCn1cc[n+](C)c1.O=S(=O)([O-])C(F)(F)F` [1-hexyl-3-methylimidazolium trifluoromethanesulfonate] + CCF, the binary diffusion coefficient worked out at 2.08e-10 m2/s (303.2 K, 94.5 kPa, x2 = 0); 2.75e-10 m2/s (313.2 K, 103.8 kPa, x2 = 0); 3.68e-10 m2/s (323.2 K, 97 kPa, x2 = 0); 4.76e-10 m2/s (333.2 K, 94.4 kPa, x2 = 0); 5.91e-10 m2/s (343.2 K, 98.1 kPa, x2 = 0).
Turning to `CCCCCCn1cc[n+](C)c1.O=S(=O)([O-])C(F)(F)F` [1-hexyl-3-methylimidazolium trifluoromethanesulfonate] + FC(F)C(F)(F)F, the binary diffusion coefficient is 2.38e-10 m2/s (303.2 K, 97.2 kPa, x2 = 0); 3.05e-10 m2/s (313.2 K, 98.5 kPa, x2 = 0); 4.17e-10 m2/s (323.2 K, 99.1 kPa, x2 = 0); 5.25e-10 m2/s (333.2 K, 100.9 kPa, x2 = 0); 6.19e-10 m2/s (343.2 K, 103.8 kPa, x2 = 0).
For `CCCCCCn1cc[n+](C)c1.O=S(=O)([O-])C(F)(F)F` [1-hexyl-3-methylimidazolium trifluoromethanesulfonate] + FCF, the binary diffusion coefficient turned out to be 3.01e-10 m2/s (303.2 K, 98.2 kPa, x2 = 0); 4.27e-10 m2/s (313.2 K, 102 kPa, x2 = 0); 5.35e-10 m2/s (323.2 K, 99.3 kPa, x2 = 0); 6.82e-10 m2/s (333.2 K, 100.2 kPa, x2 = 0); 8.35e-10 m2/s (343.2 K, 100.4 kPa, x2 = 0).
Turning to `C=C(F)C(F)(F)F` [2,3,3,3-tetrafluoro-1-propene] + CCCCCC[n+]1ccn(C)c1.O=S(=O)([N-]S(=O)(=O)C(F)(F)F)C(F)(F)F, the binary diffusion coefficient is, setting by setting: (303.2 K, 96.7 kPa, x1 = 0) 1.39e-10 m2/s; (313.2 K, 95.6 kPa, x1 = 0) 1.99e-10 m2/s; (323.2 K, 97.7 kPa, x1 = 0) 2.75e-10 m2/s; (333.2 K, 98.3 kPa, x1 = 0) 4.01e-10 m2/s; (343.2 K, 102.9 kPa, x1 = 0) 5.96e-10 m2/s.
With `C=C(F)C(F)(F)F` [2,3,3,3-tetrafluoro-1-propene] + CCCCCCn1cc[n+](C)c1.F[B-](F)(F)F, the binary diffusion coefficient by setting is: (303.2 K, 158.3 kPa, x1 = 0) 6.9e-11 m2/s; (313.2 K, 168.4 kPa, x1 = 0) 1.02e-10 m2/s; (323.2 K, 170 kPa, x1 = 0) 1.59e-10 m2/s; (333.2 K, 185.3 kPa, x1 = 0) 2.47e-10 m2/s; (343.2 K, 189 kPa, x1 = 0) 3.59e-10 m2/s.
Turning to `FCF` [difluoromethane] + CCCCCC[n+]1ccn(C)c1.O=S(=O)([N-]S(=O)(=O)C(F)(F)F)C(F)(F)F, the binary diffusion coefficient reads like this: (303.2 K, 92.8 kPa, x1 = 0) 1.55e-10 m2/s; (313.2 K, 93.9 kPa, x1 = 0) 2.15e-10 m2/s; (323.2 K, 94.4 kPa, x1 = 0) 2.77e-10 m2/s; (333.2 K, 94.3 kPa, x1 = 0) 3.68e-10 m2/s; (343.2 K, 95.2 kPa, x1 = 0) 4.78e-10 m2/s.
With `CCF` [fluoroethane] + CCCCCC[n+]1ccn(C)c1.O=S(=O)([N-]S(=O)(=O)C(F)(F)F)C(F)(F)F, the binary diffusion coefficient turned out to be 1.28e-10 m2/s (303.2 K, 90.2 kPa, x1 = 0); 2.08e-10 m2/s (313.2 K, 91.1 kPa, x1 = 0); 2.96e-10 m2/s (323.2 K, 93.4 kPa, x1 = 0); 3.46e-10 m2/s (333.2 K, 93 kPa, x1 = 0); 4.13e-10 m2/s (343.2 K, 92.5 kPa, x1 = 0).
